From publication PMC6469291, “2-Nitroimidazole-Furanoside Derivatives for Hypoxia Imaging—Investigation of Nucleoside Transporter Interaction, ^18F-Labeling and Preclinical PET Imaging” (Pharmaceuticals, 2019)

Tested on: CT26 colon carcinoma
Test: PET hypoxia imaging of CT26 colon carcinoma bearing mice
Format: in vivo, BALB/c mice
Conditions: for tumor uptake: hypoxic CT26 tumor tissue; for tumor uptake / muscle uptake: PET; for tumor-to-muscle ratio (TMR): i.v., CT26 tumor vs. shoulder muscle, mean ± SD; for muscle uptake: normoxic muscle tissue
Method: The above-described CT26 mouse colon carcinoma cells were subcutaneously inoculated in the right shoulder of female BALB/c mice (1 × 10^6 cells in phosphate-buffered saline, PBS). Subsequently, the carcinomas were allowed to grow for a period of 13 days, reaching approximately 0.3 cm3. […] All animal experiments were conducted according to guidelines for the use and care of laboratory research animals under the German Animal Protection Law, and approved by local authorities (Regierungspräsidium Tübingen). […] All experiments were done using medical air as carrier gas for isoflurane anesthesia (1.5% isoflurane during PET scans, flow rate 0.4 L/min), including tracer injections, with a specialized vaporizer ([…], Louisville, KY, USA). Subsequent to the tracer injections, the animals were allowed to freely move in their home cages for an uptake period of 55 min, thus, breathing room air. […] PET scans were performed with a Siemens Inveon dedicated PET (DPET, Siemens Healthcare, Knoxville, TN, USA). PET scans were then reconstructed with a two-dimensional ordered subset expectation maximization algorithm (OSEM2D with 16 subsets and 4 iterations). Image zoom was set to 1 and matrix size to 128 × 128 yielding a final PET image spatial resolution of 0.79 × 0.79 × 0.80 mm3. PET data were manually corrected for radioactive decay of ^18F. PET image analysis was performed using the PMOD 3.2_base 64 image viewing tool (PMOD Technologies, Zürich, Switzerland). […] Finally, PET data were expressed as percent injected dose per cubic-centimeter (%ID/cc) or tumor-to-muscle ratio (TMR).

## O=[N+]([O-])c1nccn1[C@@H]1C[C@H](O)[C@@H](C[18F])O1 [α-[^18F]FAZDR, 1′-α-[2′,5′-dideoxy-5′-[^18F]fluoro-D-ribofuranosyl]-2-nitroimidazole]
1 h p.i.
  tumor uptake: 1.90 ± 0.48 %ID/cc
  tumor-to-muscle ratio (TMR): 1.93 ± 0.39
  muscle uptake: 1.01 ± 0.32 %ID/cc
2 h p.i. relative to 1 h p.i.
  muscle clearance: 53.3 ± 8.3%
  tumor clearance: 34.2 ± 7.5%
3 h p.i.
  clearance ratio for tumor relative to muscle tissue: 0.79 ± 0.12
  tumor uptake: 0.88 ± 0.42 %ID/cc
  muscle uptake: 0.31 ± 0.15 %ID/cc
3 h p.i. relative to 1 h p.i.
  muscle clearance: 70.3 ± 5.5%
  tumor clearance: 55.3 ± 8.3%

## O=[N+]([O-])c1nccn1CC(O)C[18F] (centres unmarked) [[^18F]FMISO, reference compound]
1 h p.i.
  tumor uptake: 2.49 ± 0.88 %ID/cc
  tumor-to-muscle ratio (TMR): 1.37 ± 0.11
  muscle uptake: 1.81 ± 0.58 %ID/cc
2 h p.i. relative to 1 h p.i.
  muscle clearance: 37.2 ± 4.3%
  tumor clearance: 11.8 ± 6.5%
3 h p.i.
  clearance ratio for tumor relative to muscle tissue: 0.45 ± 0.17
3 h p.i. relative to 1 h p.i.
  muscle clearance: 58.6 ± 3.3%
  tumor clearance: 26.9 ± 10.1%

## O=[N+]([O-])c1nccn1[C@H]1C[C@H](O)[C@@H](C[18F])O1 [β-[^18F]FAZDR, [^18F]fluoro-azomycin-β-deoxyriboside]
1 h p.i.
  tumor uptake: 0.40 ± 0.07 %ID/cc
  tumor-to-muscle ratio (TMR): 2.52 ± 0.94
  muscle uptake: 0.17 ± 0.03 %ID/cc
2 h p.i. relative to 1 h p.i.
  muscle clearance: 58.4 ± 8.2%
  tumor clearance: 56.6 ± 6.8%
2 h p.i.
  tumor uptake: 0.18 ± 0.06 %ID/cc
  tumor-to-muscle ratio (TMR): 2.65 ± 0.87
  muscle uptake: 0.07 ± 0.01 %ID/cc
3 h p.i.
  clearance ratio for tumor relative to muscle tissue: 0.95 ± 0.02
  tumor uptake: 0.12 ± 0.05 %ID/cc
  tumor-to-muscle ratio (TMR): 2.91 ± 1.01
  muscle uptake: 0.04 ± 0.01 %ID/cc
3 h p.i. relative to 1 h p.i.
  muscle clearance: 75.3 ± 6.4%
  tumor clearance: 71.5 ± 7.0%
